Some test systems named below: 786-0 renal; DLD-1 colon; DMS 114 small cell lung; DMS 273 small cell lung; EKVX NSCLC; HOP-18 NSCLC; KM20L2 colon; LXFL 529 NSCLC; M19-MEL melanoma; MALME-3M melanoma; RXF 393 renal; RXF-631 renal; SF-539 CNS; SNB-19 CNS; SNB-78 CNS; XF 498 CNS; BT-549 breast; HS 578T breast; MDA-N; T-47D breast.
Holding throughout (assay): NCI-60 cell line screen, 48 h

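Grown in 96-well plates, cells were treated for 48 hours with each compound at five concentrations. Insufficient inhibition: endpoint recorded as highest concentration tested. At the TGI there is no net growth.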 Bounds are passed on as bounds.

Take `CCOC(=O)CCn1cnc(N)n1`: the TGI in the assay on 786-0 renal, in the assay with DLD-1 colon, in the assay on DMS 114 small cell lung, with DMS 273 small cell lung, in the assay on EKVX NSCLC and in the assay on HOP-18 NSCLC was above 100 µM each time. In addition, the TGI in the assay on KM20L2 colon, with LXFL 529 NSCLC, in the assay on M19-MEL melanoma, with MALME-3M melanoma, in the assay on RXF 393 renal and in the assay on RXF-631 renal was above 100 µM in each case. In addition, the TGI in the assay with SF-539 CNS, with SNB-19 CNS, with SNB-78 CNS and in the assay with XF 498 CNS was above 100 µM each time.
As for `COC1(C)CNCC(C)(C)NC(=O)C(C)(OC)CNCC(C)(C)NC1=O` (stereo unspecified), the TGI with 786-0 renal, in the assay on DLD-1 colon, in the assay with DMS 114 small cell lung, with DMS 273 small cell lung, in the assay on EKVX NSCLC and in the assay with HOP-18 NSCLC was above 100 µM in each case. Also, the TGI with KM20L2 colon, with LXFL 529 NSCLC, in the assay with M19-MEL melanoma, with MALME-3M melanoma, in the assay on RXF 393 renal and in the assay with RXF-631 renal was above 100 µM in each case. Also, the TGI with SF-539 CNS, in the assay with SNB-19 CNS and in the assay on SNB-78 CNS was above 100 µM each time.
As to `COC(=O)/C(=N\N)C(C(=O)C(=O)Nc1nc(=S)[nH][nH]1)c1nc2ccc([N+](=O)[O-])cc2[nH]c1=O` (stereo unspecified), the TGI with 786-0 renal, in the assay with DLD-1 colon, in the assay on DMS 114 small cell lung, in the assay with DMS 273 small cell lung, in the assay on EKVX NSCLC and with HOP-18 NSCLC was above 100 µM each time. Further, the TGI with KM20L2 colon, in the assay with LXFL 529 NSCLC, with M19-MEL melanoma, in the assay with MALME-3M melanoma, with RXF 393 renal and in the assay on RXF-631 renal was above 100 µM each time. The TGI in the assay with SF-539 CNS, in the assay on SNB-19 CNS and in the assay on SNB-78 CNS was above 100 µM throughout.
As to `O=C1c2ccccc2C(=O)c2sc(Nc3ccc([N+](=O)[O-])cc3)nc21`, the TGI turned out to be 12.3 µM in the assay with 786-0 renal; 27.4 µM in the assay on BT-549 breast; 11.5 µM in the assay with DLD-1 colon; 6.32 µM with DMS 114 small cell lung; 14.6 µM in the assay on DMS 273 small cell lung; 23.2 µM with EKVX NSCLC. For the same molecule, the TGI with HOP-18 NSCLC came to 9.03 µM; with HS 578T breast it was 22.2 µM; with KM20L2 colon it was 45.6 µM; with LXFL 529 NSCLC, 3.06 µM; in the assay with M19-MEL melanoma, 3 µM; in the assay on MALME-3M melanoma it was 12.6 µM. The TGI in the assay on MDA-N is 3.49 µM; in the assay with RXF 393 renal, 9.71 µM; with RXF-631 renal, above 55.1 µM; in the assay on SF-539 CNS, 15.3 µM; in the assay with SNB-19 CNS, 25.7 µM; in the assay on SNB-78 CNS, 42 µM. Further, the TGI with T-47D breast worked out at 6.81 µM; in the assay with XF 498 CNS, 4.18 µM.
Consider `N#CCC(=O)Nc1ccccc1O`, for which the TGI with 786-0 renal, with DLD-1 colon, in the assay on DMS 273 small cell lung, in the assay on EKVX NSCLC, in the assay with HOP-18 NSCLC and in the assay with KM20L2 colon was above 100 µM throughout. For the same molecule, the TGI with LXFL 529 NSCLC, in the assay on M19-MEL melanoma, with MALME-3M melanoma, in the assay with RXF 393 renal, in the assay on RXF-631 renal and in the assay with SF-539 CNS was above 100 µM in each case. Moreover, the TGI in the assay with SNB-19 CNS, with SNB-78 CNS and in the assay on XF 498 CNS was above 100 µM throughout.

Values taken from PubChem BioAssay (NCI).
